These results are taken from ChEMBL document CHEMBL1136431, “Preparation and pharmacological profile of 7-(alpha-azolylbenzyl)-1H-indoles and indolines as new aromatase inhibitors” (Bioorg Med Chem Lett, 2003).

What is called inhibition is how much of the control response was suppressed. For orientation: IC50 means the point on the concentration scale where inhibition reaches its midpoint. Read a high IC50 as a need for much substance.

The target of series [1] is T1, Cytochrome P450 17A1 (steroid 17-alpha-hydroxylase/17,20 lyase) (Rattus norvegicus, UniProt P11715).
T1 sequence (P11715 whole entry): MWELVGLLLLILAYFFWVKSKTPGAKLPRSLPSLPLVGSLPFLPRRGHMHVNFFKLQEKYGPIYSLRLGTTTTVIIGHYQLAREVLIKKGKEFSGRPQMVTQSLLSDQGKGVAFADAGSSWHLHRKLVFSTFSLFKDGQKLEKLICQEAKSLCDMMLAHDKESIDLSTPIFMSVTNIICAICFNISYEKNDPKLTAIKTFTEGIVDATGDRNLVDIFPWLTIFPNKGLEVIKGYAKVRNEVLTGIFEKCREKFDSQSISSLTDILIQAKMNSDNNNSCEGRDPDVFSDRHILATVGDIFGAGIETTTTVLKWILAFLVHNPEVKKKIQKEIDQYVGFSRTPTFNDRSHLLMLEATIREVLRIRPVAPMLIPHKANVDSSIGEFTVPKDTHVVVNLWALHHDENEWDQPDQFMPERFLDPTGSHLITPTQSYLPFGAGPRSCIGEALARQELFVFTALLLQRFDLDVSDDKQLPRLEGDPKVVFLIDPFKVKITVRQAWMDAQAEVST
Put plainly: Inhibition Cytochrome P450 17A1 of rat testicular microsomes at 2.5 uM with 25 uM progesterone. The following applies: probe progesterone (25 uM).

For series [2], the target named is T2, Aromatase (Homo sapiens, UniProt P11511).
T2 sequence (P11511 whole entry): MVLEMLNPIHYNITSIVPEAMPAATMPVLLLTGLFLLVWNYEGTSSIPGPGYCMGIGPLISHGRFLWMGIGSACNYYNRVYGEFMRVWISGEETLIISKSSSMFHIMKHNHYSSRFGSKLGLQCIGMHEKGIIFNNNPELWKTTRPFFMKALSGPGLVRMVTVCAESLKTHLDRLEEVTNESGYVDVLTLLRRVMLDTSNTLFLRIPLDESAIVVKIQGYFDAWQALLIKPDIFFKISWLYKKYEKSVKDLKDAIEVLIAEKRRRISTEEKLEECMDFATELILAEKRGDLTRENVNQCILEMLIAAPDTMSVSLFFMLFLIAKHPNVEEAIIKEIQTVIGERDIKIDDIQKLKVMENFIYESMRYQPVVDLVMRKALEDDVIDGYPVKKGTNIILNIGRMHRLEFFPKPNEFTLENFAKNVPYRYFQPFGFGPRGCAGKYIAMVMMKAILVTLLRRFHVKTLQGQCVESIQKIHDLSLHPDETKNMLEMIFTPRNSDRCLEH
Description: Inhibition of cytochrome P450 19A1 of human placental microsomes with [1-beta,2beta-3H]testosterone

The target in series [3] is T2, Aromatase. Put plainly: In vitro inhibition of cytochrome P450 19A1 from human placental microsomes with 2.5 uM [1-beta,2beta-3H]testosterone.
Series [4] deals with T2, Aromatase. Put plainly: Relative potency as IC50 compared to aminoglutethimide IC50=[…] uM.

Structures are written as SMILES.

Compound `CCN1CCc2cc(Cl)cc(C(c3ccc(F)cc3)n3ccnc3)c21` (stereo unspecified) returned an inhibition at 2.5 µM in series [1] of 23%.

Take `CCN1CCc2cc(Br)cc(C(c3ccc(F)cc3)n3ccnc3)c21` (stereo unspecified): in series [1], the inhibition at 2.5 µM came out at 8%. Also, the IC50 in series [2] was found to be 90 nM.

With `CCN1CCc2cccc(C(c3ccc(F)cc3)n3ccnc3)c21` (stereo unspecified), the inhibition at 2.5 µM in series [1] is 37%. The same compound displayed an IC50 in series [3] of 61.5 nM.

Compound `CCN1CCc2cccc(C(c3cccc(Cl)c3)n3ccnc3)c21` (stereo unspecified) gave an inhibition at 2.5 µM in series [1] of 38%.

On to `CCn1ccc2cccc(C(c3ccc(F)cc3)n3ccnc3)c21` (stereo unspecified), for which at 2.5 µM the inhibition in series [1] was 37%. This compound had an IC50 in series [2] of 62 nM.

In series [1], `CCn1ccc2cccc(C(c3ccc(Cl)cc3)n3ccnc3)c21` (stereo unspecified) yielded an inhibition at 2.5 µM of 29%.

For the compound `CCn1ccc2cc(Br)cc(C(c3ccc(F)cc3)n3ccnc3)c21` (stereo unspecified), in series [1], the inhibition at 2.5 µM was found to be 9%. For the same compound, the IC50 in series [2] turned out to be 200 nM.

In series [1], `CCn1ccc2cccc(C(c3ccc(Br)cc3)n3ccnc3)c21` (stereo unspecified) yielded an inhibition at 2.5 µM of 29%. It took 70 nM to reach half-maximal inhibition in series [2] (IC50).

As for `CCn1ccc2cccc(C(c3cccc(Cl)c3)n3ccnc3)c21` (stereo unspecified), in series [1], the inhibition at 2.5 µM stood at 43%.

On to `CCN1CCc2cccc(C(c3ccc(F)cc3)n3cncn3)c21` (stereo unspecified), for which it took 2900 nM to reach half-maximal inhibition in series [2] (IC50). In addition, in series [4], the Relative potency was found to be 10.
